Common to all, as to conditions: stereoisomer not certain
The nature of series [1]: RP, Waters CORTECS T3, 100 × 2.1 mm, 2.7 µm, 0.2 mL/min, estimated dead time 1.1 min; A: water + 0.1% formic acid, pH 3; B: methanol + 0.1% formic acid, pH 3; gradient (min/%B) 0/0 1/0 6/5 30/100 35/100 35.1/0 40/0.
A short description of series [2]: RP, Waters CORTECS T3, 100 × 2.1 mm, 2.7 µm, 0.3 mL/min, estimated dead time 0.73 min; A: water + 0.1% formic acid, pH 3; B: methanol + 0.1% formic acid, pH 3; gradient (min/%B) 0/0 1/0 6/5 30/100 35/100 35.1/0 40/0.
Series [3] is described as follows: RP, Waters CORTECS T3, 100 × 2.1 mm, 2.7 µm, 0.3 mL/min, estimated dead time 0.73 min; A: water + 0.1% formic acid, pH 3; B: methanol + 0.1% formic acid, pH 3; gradient (min/%B) 0/0 5/0 25/100 30/100 30.1/0 35/0.
Series [4] in a line: RP, Waters CORTECS T3, 100 × 2.1 mm, 2.7 µm, 0.25 mL/min, estimated dead time 0.88 min; A: water + 0.1% formic acid, pH 3; B: methanol + 0.1% formic acid, pH 3; gradient (min/%B) 0/5 5/5 25/95 25.1/100 35/100 35.1/5 45/5.
Series [5] in a line: HILIC, Waters XBridge BEH Amide, 100 × 2.1 mm, 2.5 µm, 0.5 mL/min, estimated dead time 0.44 min; A: water + 0.1% acetic acid + 10 mM ammonium acetate, pH 4; B: 5% water + 95% acetonitrile + 0.1% acetic acid + 10 mM ammonium acetate, pH 4; gradient (min/%B) 0/95 5/95 20/57 25/57 30/95 40/95.
Series [6] can be described thus: HILIC, Merck SeQuant ZIC-HILIC, 150 × 2.1 mm, 5 µm, 0.75 mL/min, estimated dead time 0.44 min; A: water + 0.1% acetic acid + 10 mM ammonium acetate, pH 4; B: 5% water + 95% acetonitrile + 0.1% acetic acid + 10 mM ammonium acetate, pH 4; gradient (min/%B) 0/95 5/95 20/57 25/57 30/95 40/95.
Series [7] in a line: RP, Waters ACQUITY UPLC BEH C18, 100 × 2.1 mm, 1.7 µm, 0.2 mL/min, estimated dead time 1.1 min; A: water + 0.1% formic acid, pH 3; B: methanol + 0.1% formic acid, pH 3; gradient (min/%B) 0/5 5/5 25/100 30/100 30.1/5 35/5.
Series [8] can be described thus: RP, Waters ACQUITY UPLC BEH C18, 100 × 2.1 mm, 1.7 µm, 0.2 mL/min, estimated dead time 1.1 min; A: water + 0.025% formic acid + 20 mM ammonium acetate + 0.055% ammonium hydroxide, pH 7; B: methanol; gradient (min/%B) 0/5 5/5 25/100 30/100 30.1/5 35/5.
A short description of series [9]: RP, Waters CORTECS T3, 100 × 2.1 mm, 2.7 µm, 0.15 mL/min, estimated dead time 1.5 min; A: water + 0.1% formic acid, pH 3; B: methanol + 0.1% formic acid, pH 3; gradient (min/%B) 0/5 5/5 25/95 25.1/100 35/100 35.1/5 45/5.
Series [10] is described as follows: HILIC, Thermo Scientific Accucore HILIC, 100 × 2.1 mm, 2.6 µm, 0.5 mL/min, estimated dead time 0.44 min; A: water + 0.1% formic acid + 10 mM ammonium formate, pH 3; B: 5% water + 95% acetonitrile + 0.1% formic acid + 10 mM ammonium formate, pH 3; gradient (min/%B) 0/95 5/95 20/57 25/57 30/95 40/95.
Series [11] can be described thus: HILIC, Merck SeQuant ZIC-HILIC, 150 × 2.1 mm, 5 µm, 0.75 mL/min, estimated dead time 0.44 min; A: water + 10 mM ammonium formate, pH 6; B: 5% water + 95% acetonitrile + 10 mM ammonium formate, pH 6; gradient (min/%B) 0/95 5/95 20/57 25/57 30/95 40/95.
Series [12] is described as follows: RP, Waters CORTECS T3, 100 × 2.1 mm, 2.7 µm, 0.2 mL/min, estimated dead time 1.1 min; A: water + 0.1% formic acid, pH 3; B: methanol + 0.1% formic acid, pH 3; gradient (min/%B) 0/5 5/5 25/95 25.1/100 35/100 35.1/5 45/5.
Series [13] is described as follows: RP, Waters ACQUITY UPLC BEH C18, 100 × 2.1 mm, 1.7 µm, 0.1 mL/min, estimated dead time 2.2 min; A: water + 0.1% formic acid, pH 3; B: methanol + 0.1% formic acid, pH 3; gradient (min/%B) 0/5 5/5 25/95 25.1/100 35/100 35.1/5 45/5.
A short description of series [14]: RP, Waters CORTECS T3, 100 × 2.1 mm, 2.7 µm, 0.3 mL/min, estimated dead time 0.73 min; A: water + 0.1% formic acid, pH 3; B: methanol + 0.1% formic acid, pH 3; gradient (min/%B) 0/0 5/0 25/100 30/100 30.1/0 35/0. This is another data set of the same source.
A short description of series [15]: RP, Waters CORTECS T3, 100 × 2.1 mm, 2.7 µm, 0.2 mL/min, estimated dead time 1.1 min; A: water + 0.1% formic acid, pH 3; B: methanol + 0.1% formic acid, pH 3; gradient (min/%B) 0/0 1/0 6/5 30/100 35/100 35.1/0 40/0. The source holds these as a separate data set.
Series [16] in a line: RP, Waters CORTECS T3, 100 × 2.1 mm, 2.7 µm, 0.3 mL/min, estimated dead time 0.73 min; A: water + 0.1% formic acid, pH 3; B: methanol + 0.1% formic acid, pH 3; gradient (min/%B) 0/5 5/5 25/100 30/100 30.1/5 35/5.
A short description of series [17]: RP, Waters CORTECS T3, 100 × 2.1 mm, 2.7 µm, 0.3 mL/min, estimated dead time 0.73 min; A: water + 0.1% formic acid, pH 3; B: methanol + 0.1% formic acid, pH 3; gradient (min/%B) 0/5 5/5 25/95 25.1/100 35/100 35.1/5 45/5.
The nature of series [18]: RP, Waters ACQUITY UPLC BEH C18, 100 × 2.1 mm, 1.7 µm, 0.1 mL/min, estimated dead time 2.2 min; A: water + 0.1% formic acid, pH 3; B: methanol + 0.1% formic acid, pH 3; gradient (min/%B) 0/5 5/5 25/100 30/100 30.1/5 35/5.
The nature of series [19]: RP, Waters CORTECS T3, 100 × 2.1 mm, 2.7 µm, 0.1 mL/min, estimated dead time 2.2 min; A: water + 0.1% formic acid, pH 3; B: methanol + 0.1% formic acid, pH 3; gradient (min/%B) 0/5 5/5 25/95 25.1/100 35/100 35.1/5 45/5.
A short description of series [20]: RP, Waters CORTECS T3, 100 × 2.1 mm, 2.7 µm, 0.25 mL/min, estimated dead time 0.88 min; A: water + 0.1% formic acid, pH 3; B: methanol + 0.1% formic acid, pH 3; gradient (min/%B) 0/0 1/0 6/5 30/100 35/100 35.1/0 40/0.
Series [21] in a line: RP, Waters CORTECS T3, 100 × 2.1 mm, 2.7 µm, 0.3 mL/min, estimated dead time 0.73 min; A: water + 0.1% formic acid, pH 3; B: methanol + 0.1% formic acid, pH 3; gradient (min/%B) 0/0 1/0 6/5 30/100 35/100 35.1/0 40/0. This is another data set of the same source.
The nature of series [22]: RP, Waters CORTECS T3, 100 × 2.1 mm, 2.7 µm, 0.15 mL/min, estimated dead time 1.5 min; A: water + 0.1% formic acid, pH 3; B: methanol + 0.1% formic acid, pH 3; gradient (min/%B) 0/0 1/0 6/5 30/100 35/100 35.1/0 40/0.
Series [23] in a line: RP, Waters CORTECS T3, 100 × 2.1 mm, 2.7 µm, 0.1 mL/min, estimated dead time 2.2 min; A: water + 0.1% formic acid, pH 3; B: methanol + 0.1% formic acid, pH 3; gradient (min/%B) 0/0 1/0 6/5 30/100 35/100 35.1/0 40/0.

Each structure is given as a SMILES string.

The values that follow come from the RepoRT retention time repository (doi:10.1016/j.jchromb.2020.122105).

For the molecule `O=C(O)c1ccc2ccccc2c1[O-]` [1-HYDROXY-2-NAPHTHOATE], the LC retention time in [1] was 23.3 min; in [2] it was 21.7 min; in series [3], 19.1 min; in [4], 19.9 min; in [5], 1.05 min; in [6] it was 1.27 min. Also, the LC retention time in [7] is 21.1 min; in [8], 14.1 min; in series [9] it was 21.9 min; in series [10], 0.82 min; in series [11], 1.33 min; in series [12], 26.8 min. The LC retention time in [13] was 25.1 min.

Regarding `O=C([O-])CCc1ccccc1O` [3-(2-HYDROXYPHENYL)PROPANOATE], the LC retention time is 15.9 min in [1]; 14.2 min in series [2]; 13.3 min in [3]; 13.2 min in series [4]; 1.75 min in [5]; 2.27 min in series [6]. For the same molecule, the LC retention time is 14.4 min in [7]; 6.28 min in series [8]; 15.5 min in series [9]; 0.87 min in series [10]; 1.85 min in series [11]; 19.6 min in [12]. For the same molecule, in series [13], the LC retention time is 18.3 min.

On to `N[C@@H](Cc1ccc(O)c([N+](=O)[O-])c1)C(=O)O` [3-NITRO-L-TYROSINE], for which the LC retention time is 8.96 min in series [1]; 7.13 min in series [2]; 7.98 min in series [14]; 8.03 min in [3]; 5.25 min in series [4]; 8.81 min in series [15]. In addition, the LC retention time in series [6] is 10.6 min; in series [16], 4.34 min; in series [17], 4.27 min; in series [7], 6.44 min; in [9] it was 8.37 min; in series [18], 10.8 min. Besides, the LC retention time in series [10] was 9.89 min; in [19], 10.8 min; in series [11] it was 11 min; in [20], 7.83 min; in [12] it was 12.6 min; in [21], 6.9 min. The LC retention time is 10.4 min in series [22], 10.9 min in series [13] and 6.31 min in series [23].

As to `Cc1ncc(CO)c(C(=O)O)c1O` [4-PYRIDOXATE], the LC retention time in series [1] was 6.16 min; in series [2] it was 4.57 min; in [3], 4.79 min; in series [4], 2.84 min; in series [5] it was 1.28 min; in [6], 1.41 min. In addition, the LC retention time was 3.4 min in [7]; 3.81 min in series [8]; 4.64 min in series [9]; 1.15 min in series [10]; 1.42 min in [11]; 10.4 min in [12]. In addition, in series [13], the LC retention time was 6.57 min.

Regarding `O=C(O)CCCCCCCC(=O)O` [AZELAIC ACID], the LC retention time in series [1] was 18.4 min; in series [2], 16.9 min; in [3] it was 15.4 min; in series [4], 15.6 min; in series [6] it was 9.72 min; in [7], 16.3 min. The LC retention time was 1.41 min in [8]; 17.6 min in series [9]; 1.1 min in [10]; 7.14 min in series [11]; 21.8 min in series [12]; 19.9 min in series [13].

As for `O=c1[nH]cnc2c1ncn2C1OC(CO)C(O)C1O` (centres undefined) [INOSINE], the LC retention time was 6.93 min in series [1]; 5.37 min in [2]; 2.9 min in [4]; 7.97 min in [5]; 8.42 min in [6]; 3.3 min in series [7]. In addition, the LC retention time in [8] is 1.41 min; in [9], 4.68 min; in series [10], 4.88 min; in series [11], 8.73 min; in series [12] it was 10.8 min; in series [13] it was 2.76 min.
